From patent publication US5684013A, “Tricyclic compounds useful for inhibition of g-protein function and for treatment of proliferative diseases” (Schering Corporation, priority 1995, dated 1997) come the findings set out here.

The target of test [1] is T1, farnesyl protein transferase (FPT) (Rattus norvegicus, UniProt Q02293+Q04631).
T1 construct: were partially purified from rat brain by ammonium sulfate fractionation; from tissue; host or cells: rat brain
Nature of the test: In vitro enzyme assay: inhibition of farnesyl protein transferase (FPT), Ras-CVLS farnesylation. It is filed as biochemical. To be noted: for IC50: read-out: FPT IC50. From the text: 1. In vitro enzyme assays: Inhibition of farnesyl protein transferase and geranylgeranyl protein transferase.
Both farnesyl protein transferase (FPT) and geranylgeranyl protein transferase (GGPT) I were partially purified from rat brain by ammonium sulfate fractionation followed by Q-Sepharose (Pharmacia, Inc.) anion exchange chromatography essentially as described by Yokoyama et al (Yokoyama, K., et al., (1991), A protein geranylgeranyltransferase from bovine brain: Implications for protein prenylation specificity, Proc. Natl. Acad. Sci USA 88: 5302-5306, the disclosure of which is incorporated herein by reference thereto). Human farnesyl protein transferase was also expressed in E. coli, using cDNA clones encoding both the a and b subunits. The methods used were similar to those published (Omer, C. et al., (1993), Characterization of recombinant human farnesyl protein transferase: Cloning, expression, farnesyl diphosphate binding, and functional homology with yeast prenyl-protein transferases, Biochemistry 32:5167-5176). Human farnesyl protein transferase was partially-purified from the soluble protein fraction of E. coli as described above. the tricyclic farnesyl protein transferase inhibitors disclosed herein inhibited both human and rat enzyme with similar potencies. Two forms of val^12 -Ha-Ras protein were prepared as substrates for these enzymes, differing in their carboxy terminal sequence. One form terminated in cysteine-valine-leucine-serine (Ras-CVLS) the other in cystein-valine-leucine-leucine (Ras-CVLL). Ras-CVLS is a substrate for the farnesyl protein transferase while Ras-CVLL is a substrate for geranylgeranyl protein transferase I. The cDNAs encoding these proteins were constructed so that the proteins contain an amino-terminal extension of 6 histidine residues. Both proteins were expressed in Escherichia coli and purified using metal chelate affinity chromatography. The radiolabelled isoprenyl pyrophosphate substrates, [^3 H]farnesyl pyrophosphate and [^3 H]geranylgeranyl pyrophosphate, were purchased from DuPont/New England Nuclear.
Several methods for measuring farnesyl protein transferase activity have been described (Reiss et al 1990, Cell 62: 81; Schaber et al 1990, J. Biol. Chem. 265: 14701; Manne et al 1990, PNAS 87: 7541; and Barbacid & Manne 1993, U.S. Pat. No. 5,185,248). The activity was assayed by measuring the transfer of [^3 H]farnesyl from [^3 H]farnesyl pyrophosphate to Ras-CVLS using conditions similar to those described by Reiss et al. 1990 (Cell 62: 81) The reaction mixture contained 40 mM Hepes, pH 7.5; 20 mM magnesium chloride; 5 mM dithiothreitol; 0.25 μM [^3 H]farnesyl pyrophosphate; […] Q-Sepharose-purified farnesyl protein transferase; the indicated concentration of tricyclic compound or dimethylsulfoxide (DMSO) vehicle control (5% DMSO final); and […] Ras-CVLS in a total volume of […]. The reaction was allowed to proceed for 30 minutes at room temperature and then stopped with 0.5 ml of 4% sodium dodecyl sulfate (SDS) followed by 0.5 ml of cold 30% trichloracetic acid (TCA). Samples were allowed to sit on ice for 45 minutes and precipitated Ras protein was then collected on GF/C filter paper mats using a Brandel cell harvester. Filter mats were washed once with 6% TCA, 2% SDS and radioactivity was measured in a Wallac 1204 Betaplate BS liquid scintillation counter. Percent inhibition was calculated relative to the DMSO vehicle control.

The subject of test [2] is T24-BAG4 human bladder carcinoma cells. Nature of the test: Cell Mat Assay: inhibition of tumor cell growth. It is filed as cell-based. Conditions: 336 h, tIC50, 14 d colony formation. The method, then: (§1) Normal human HEPM fibroblasts were planted in 3.5 cm dishes at a density of 5×10^4 cells/dish in 2 ml growth medium, and incubated for 3-5 d to achieve confluence. Medium was aspirated from each dish and the indicator tumor cells, T24-BAG4 human bladder carcinoma cells expressing an activated H-ras gene, were planted on top of the fibroblast monolayer at a density of 2×10^3 cells/dish in 2 ml growth medium, and allowed to attach overnight. Compound-induced colony inhibition was assayed by addition of serial dilutions of compound directly to the growth medium 24 h after tumor cell planting, and incubating cells for an additional 14 d to allow colony formation. Assays were terminated by rinsing monolayers twice with phosphate-buffered saline (PBS), fixing the monolayers with a 1% glutaraldehyde solution in PBS, then visualizing tumor cells by staining with X-Gal (Price, J., et al., Lineage analysis in the vertebrate nervous system by retrovirus-mediated gene transfer, Proc. Natl. Acad. Sci. 84, 156-160(1987)). In the colony inhibition assay, compounds were evaluated on the basis of two IC50 values: the concentration of drug required to prevent the increase in tumor cell number by 50% (tIC50) and the concentration of drug required to reduce the density of cells comprising the cell mat by 50% (mIC50). Both IC50 values were obtained by determining the density of tumor cells and mat cells by visual inspection and enumeration of cells per colony and the number of colonies under the microscope. The therapeutic index of the compound was quantitatively expressed as the ratio of mIC50 /tIC50, with values greater than one indicative of tumor target specificity.

Test [3] deals with Normal human HEPM fibroblasts. Description: Cell Mat Assay: inhibition of normal cell growth (cell mat). It is filed as cell-based. To be noted: Fibroblast, mIC50, normal cell monolayer. The procedure: as §1
Where [4] appears, read: read-out: FPT inhibition (percent).

Values joined by “and” are separate entries in the source; they are usually repeats but may differ in a detail not shown here. Equal values may be shown once. Bounds are passed on as bounds.

With `O=S(=O)(c1cccs1)N1CC/C(=C2\c3ccccc3CCc3cccnc32)C1` [Compound E-1B], the concentration for half-maximal inhibition (IC50) in test [1] (Table 2) amounted to 3.3 µM.

Consider `O=S(=O)(c1cccs1)N1CCC/C(=C2\c3ccc(Cl)cc3CCc3cc(Br)cnc32)C1` [Compound E-1D], for which the IC50 in test [1] (Table 2) worked out at 0.84 µM.

Regarding `O=S(=O)(c1cccs1)N1CCC/C(=C2/c3ccc(Cl)cc3CCc3cccnc32)C1` [Compound E-1J], the IC50 in test [1] (Table 2) amounted to 4.8 µM.

With `O=C(NCc1ccc(S(=O)(=O)N2CCC/C(=C3/c4ccc(Cl)cc4CCc4cccnc43)C2)s1)c1ccccc1` [Compound E-1K], the IC50 in test [1] (Table 2) is over 34 µM.

On to `O=S(=O)(c1cccs1)N1CC/C(=C2\c3ccc(Cl)cc3CCc3cccnc32)C1` [Compound E-1], for which the 50% inhibitory concentration (IC50) in test [1] (Table 2) is < 0.45 µM and 0.52 µM.

In the case of `O=S(=O)(c1ccccc1)N1CC/C(=C2\c3ccccc3CCc3cccnc32)C1` [Compound E-2C], the IC50 in test [1] (Table 2) stood at 2.8 µM.

For `O=S(=O)(c1ccccc1)N1CCC/C(=C2\c3ccc(Cl)cc3CCc3cc(Br)cnc32)C1` [Compound E-2D], the IC50 in test [1] (Table 2) stood at 0.58 µM.

With `COc1ccc(S(=O)(=O)N2CCC/C(=C3\c4ccc(Cl)cc4CCc4cccnc43)C2)cc1` [Compound E-2G], the inhibition at 42 µM in test [1] (42 μM, read-out: FPT inhibition (percent)) turned out to be 33%.

On to `O=S(=O)(c1ccc(F)cc1)N1CCC/C(=C2\c3ccc(Cl)cc3CCc3cccnc32)C1` [Compound E-2H], for which the IC50 in test [1] (Table 2) was 1.34 µM; in test [2], 12.5 µM; in test [3] it was over 25 µM.

`CC(=O)Nc1ccc(S(=O)(=O)N2CCC/C(=C3\c4ccc(Cl)cc4CCc4cccnc43)C2)cc1` [Compound E-2J]: in test [1] (Table 2), the half-inhibitory concentration (IC50) is over 39.4 µM.

Regarding `Cc1ccc(S(=O)(=O)N2CCC/C(=C3\c4ccc(Cl)cc4CCc4cccnc43)C2)cc1` [Compound E-2K], in test [1] (Table 2), the half-maximal inhibitory concentration (IC50) was over 13 µM.

On to `Cc1cc(C)c(S(=O)(=O)N2CCC/C(=C3\c4ccc(Cl)cc4CCc4cccnc43)C2)c(C)c1` [Compound E-2L], for which the IC50 in test [1] (Table 2) was over 12 µM.

`CS(=O)(=O)N1CCC/C(=C2\c3ccc(Cl)cc3CCc3cccnc32)C1` [Compound E-2M]: in test [1] (15 μM, read-out: FPT inhibition (percent)), the inhibition at 15 µM worked out at 15%.

Take `O=S(=O)(Cc1ccccc1)N1CCC/C(=C2\c3ccc(Cl)cc3CCc3cccnc32)C1` [Compound E-2N]: the IC50 in test [1] (Table 2) is over 13 µM.

Turning to `O=S(=O)(c1ccccc1)N1CCC/C(=C2/c3ccc(Cl)cc3CCc3cccnc32)C1` [Compound E-2P], the IC50 in test [1] (Table 2) amounted to 3.3 µM.

Consider `O=[N+]([O-])c1ccc(S(=O)(=O)N2CCC/C(=C3/c4ccc(Cl)cc4CCc4cccnc43)C2)cc1` [Compound E-2Q], for which the IC50 in test [1] (Table 2) is over 40 µM.

On to `COc1ccc(S(=O)(=O)N2CCC/C(=C3/c4ccc(Cl)cc4CCc4cccnc43)C2)cc1` [Compound E-2R], for which the IC50 in test [1] (Table 2) is over 42 µM.

Regarding `O=S(=O)(c1ccc(F)cc1)N1CCC/C(=C2/c3ccc(Cl)cc3CCc3cccnc32)C1` [Compound E-2S], the IC50 in test [1] (Table 2) is over 43 µM.

In the case of `CC(=O)Nc1ccc(S(=O)(=O)N2CCC/C(=C3/c4ccc(Cl)cc4CCc4cccnc43)C2)cc1` [Compound E-2T], the half-inhibitory concentration (IC50) in test [1] (Table 2) was found to be 33.5 µM.

Take `O=S(=O)(c1ccccc1)N1CCCC(C2c3ccc(Cl)cc3C=Cc3cccnc32)C1` (centres unmarked) [Compound E-2U]: the IC50 in test [1] (Table 2) amounted to 6.4 µM.

As to `CS(=O)(=O)N1CCCC(C2c3ccc(Cl)cc3C=Cc3cccnc32)C1` (centres unmarked) [Compound E-2V], the IC50 in test [1] (Table 2) worked out at 44 µM.

Regarding `O=C(Cc1ccncc1)N1CC/C(=C2/c3ccc(Cl)cc3CCc3cccnc32)C1` [Compound E-3A], the inhibition at 14 µM in test [1] (setting [4]) is 11%.

Turning to `O=C(c1ccco1)N1CC/C(=C2/c3ccc(Cl)cc3CCc3cccnc32)C1` [Compound E-3B], the inhibition at 50 µM in test [1] (50 μM, read-out: FPT inhibition (percent)) is 33%.

With `O=C(Cc1cccnc1)N1CCCC(C2c3ccc(Cl)cc3CCc3cccnc32)C1` (centres unmarked) [Compound E-3C], the IC50 in test [1] (Table 2) came to 8 µM.

For the molecule `O=C(Cc1ccncc1)N1CCCC(C2c3ccc(Cl)cc3CCc3cccnc32)C1` (centres unmarked) [Compound E-3D], the IC50 in test [1] (Table 2) is over 13.9 µM.

With `O=C(Cc1cccnc1)N1CCC/C(=C2\c3ccc(Cl)cc3CCc3cccnc32)C1` [Compound E-3E], the IC50 in test [1] (Table 2) was 7.8 µM.

Regarding `O=C(Cc1ccncc1)N1CCC/C(=C2\c3ccc(Cl)cc3CCc3cccnc32)C1` [Compound E-3F], the IC50 in test [1] (Table 2) is over 14 µM.

As to `O=C(CCc1ccccc1)N1CCC/C(=C2\c3ccc(Cl)cc3CCc3cccnc32)C1` [Compound E-3G], in test [1] (Table 2), the IC50 was over 45 µM.

On to `O=C(Cc1cccnc1)N1CCC/C(=C2/c3ccc(Cl)cc3CCc3cccnc32)C1` [Compound E-3J], for which the concentration for half-maximal inhibition (IC50) in test [1] (Table 2) is 5.1 µM.

For the molecule `O=C(Cc1ccncc1)N1CCC/C(=C2/c3ccc(Cl)cc3CCc3cccnc32)C1` [Compound E-3K], the half-maximal inhibitory concentration (IC50) in test [1] (Table 2) was over 14 µM.

Take `O=C(CCc1ccccc1)N1CCC/C(=C2/c3ccc(Cl)cc3CCc3cccnc32)C1` [Compound E-3L]: the IC50 in test [1] (Table 2) is over 45 µM.

In the case of `O=C(Cc1ccncc1)N1CC/C(=C2\c3ccc(Cl)cc3CCc3cccnc32)C1` [Compound E-3M], the inhibition at 14 µM in test [1] (setting [4]) was 37%.

Regarding `O=C(CSc1ccncc1)N1CC/C(=C2\c3ccc(Cl)cc3CCc3cccnc32)C1` [Compound E-3N], the half-inhibitory concentration (IC50) in test [1] (Table 2) is 4.2 µM.

Turning to `O=C(CSc1ccncc1)N1CC/C(=C2/c3ccc(Cl)cc3CCc3cccnc32)C1` [Compound E-3], the half-maximal inhibitory concentration (IC50) in test [1] (Table 2) was determined as 6.9 µM.

Turning to `O=S(=O)(c1cccnc1)N1CCCC(C2c3ccc(Cl)cc3C=Cc3cccnc32)C1` (centres unmarked) [Compound E-4A], the IC50 in test [1] (Table 2) was determined as 7.5 µM.

Consider `O=S(=O)(c1cccnc1)N1CCC/C(=C2/c3ccc(Cl)cc3CCc3cccnc32)C1` [Compound E-4B], for which the concentration for half-maximal inhibition (IC50) in test [1] (Table 2) came to 8.8 µM.

With `O=S(=O)(c1cccnc1)N1CCC/C(=C2\c3ccc(Cl)cc3CCc3cccnc32)C1` [Compound E-4], in test [1] (Table 2), the IC50 turned out to be 0.97 µM.

As to `O=C(Nc1ccccc1)N1CCC/C(=C2\c3ccc(Cl)cc3CCc3cccnc32)C1` [Compound E-5], the IC50 in test [1] (Table 2) was over 14 µM.

Take `O=C(Sc1ccccc1)N1CCC/C(=C2\c3ccc(Cl)cc3CCc3cccnc32)C1` [Compound E-6]: in test [1] (Table 2), the 50% inhibitory concentration (IC50) was over 13 µM.

Regarding `O=C(c1cccnc1)N1CCC/C(=C2\c3ccc(Cl)cc3CCc3cccnc32)C1` [Compound E-7A], the IC50 in test [1] (Table 2) was over 14.4 µM.

Regarding `O=C(Cc1ccccc1)N1CCC/C(=C2\c3ccc(Cl)cc3CCc3cccnc32)C1` [Compound E-7B], the IC50 in test [1] (Table 2) is over 14 µM.

In the case of `O=C(c1ccccc1)N1CCC/C(=C2\c3ccc(Cl)cc3CCc3cccnc32)C1` [Compound E-7], the “FPT IC50” value in test [1] (Table 2) is “inactive”.
